Reference: patent publication US20110160213A1, “PHARMACEUTICAL COMPOSITIONS FOR THE TREATMENT OF INFLAMMATORY AND ALLERGIC DISORDERS” (Glenmark Pharmaceuticals, S.A., priority 2007, published 2011)

Experiment: Solubility by shake flask method in various media
Type: physicochemical
Conditions: for Solubility: about 37° C., after 24 hours

## O=C(Nc1c(Cl)c[n+]([O-])cc1Cl)c1ccc(OC(F)F)c2oc3ccncc3c12.[Na] [3,5-dichloro-4-(6-difluoromethoxybenzo[4,5]furo[3,2-c]pyridin-9-ylcarboxamido)-1-pyridiniumolate, sodium salt]
0.1N HCl with 1% sodium lauryl sulphate
  Solubility: 8.81 mg/250 ml
0.1N HCl
  Solubility: 9.17 mg/250 ml
Acetate buffer pH 4.5
  Solubility: 1.69 mg/250 ml
Acetate buffer pH 4.5 with 0.1% SLS
  Solubility: 4.81 mg/250 ml
Citrate buffer pH 3.0
  Solubility: 6.02 mg/250 ml
Citrate buffer pH 3.0 with 1% Triton X
  Solubility: 8.6 mg/250 ml
Water
  Solubility: 0.68 mg/250 ml
water
  Solubility in water (in words): poor solubility in water
